Legend:
[1] = system: herpes simplex type 1 (KOS strain); test: Plaque reduction assay in Vero cells; type: cell-based; settings: HSV-1 KOS, three days
Protocol: Antiviral activity was determined using a plaque reduction assay. Petri plates were seeded with Vero cells which were then allowed to grow to confluency. Each plate was then infected with a fixed number of plaque forming units (abut 100-500) of herpes simplex type 1 (KOS strain). The inhibitors, either alone or in the indicated combinations, were dissolved to give the indicated concentration in minimal essential medium containing 2% heat inactivated fetal calf serum and 0.5% human immune serum globulin: One hour after infection the solutions (10 ml per plate) were added to the cultures. Three days later the cultures were formalin-fixed and stained with crystal violet, and the plaques were counted.

[2] = system: Friend Leukemia Virus (FLV); test: Anti-Friend Leukemia Virus plaque inhibition in FG-10 cells; type: cell-based; settings: FG-10 cells infected with FLV; compound added one hour after infecting; 3 + 3 days incubation; read-out: IC50 (concentration giving 50% inhibition of plaques)
Protocol: The enhancement of the Anti-Friend Leukemia Virus (FLV) activity of zidovudine by bacterial thymidine phosphorylase is shown in Table 1. FG-10 cells were used seeded on a plate one day before they were infected with FLV. One hour after infecting, known concentrations of the test compound or combination were added. The plates were incubated for 3 days, the media replaced with fresh McCoy's 5A media and incubated another 3 days.

SMILES | Average Plaque Count ([1]; Conc. 0.1 μM) | Average Plaque Count ([1]; Conc. 0.25 μM) | Average Plaque Count ([1]; Conc. 0.5 μM) | Average Plaque Count ([1]; Conc. 1.0 μM) | Average Plaque Count ([1]; Conc. 2.5 μM) | Average Plaque Count ([1]; Conc. 5.0 μM) | Average Plaque Count ([1]; Conc. 7.5 μM) | Average Plaque Count ([1]; Conc. 10 μM) | inhibition at 0.1 µM ([1]; Human alphaherpesvirus 1, 72 h, Conc. 0.1 μM) [%] | inhibition at 0.25 µM ([1]; Human alphaherpesvirus 1, 72 h, Conc. 0.25 μM) [%] | inhibition at 0.5 µM ([1]; Human alphaherpesvirus 1, 72 h, Conc. 0.5 μM) [%] | inhibition at 1 µM ([1]; Human alphaherpesvirus 1, 72 h, Conc. 1.0 μM) [%] | inhibition at 2.5 µM ([1]; Human alphaherpesvirus 1, 72 h, Conc. 2.5 μM) [%] | inhibition at 5 µM ([1]; Human alphaherpesvirus 1, 72 h, Conc. 5.0 μM) [%] | inhibition at 7.5 µM ([1]; Human alphaherpesvirus 1, 72 h, Conc. 7.5 μM) [%] | inhibition at 10 µM ([1]; Human alphaherpesvirus 1, 72 h, Conc. 10 μM) [%] | IC50 [2] [nM]
Nc1nc2c(ncn2COCCO)c(=O)[nH]1 [Acyclovir, 9-[(2-hydroxyethoxy)methyl]guanine] | 316.5 | 298 | 290.5 | 230 | 182 | 88 | 54 | 34.5 | 11.6 | 16.7 | 19 | 35.8 | 49.2 | 75.4 | 84.9 | 90.4 | 
Cc1cn([C@H]2C[C@H](N=[N+]=[N-])[C@@H](CO)O2)c(=O)[nH]c1=O [Zidovudine, 3′-azido-3′-deoxythymidine] |  |  |  |  |  |  |  |  |  |  |  |  |  |  |  |  | 5
